Columns and labels:
Femoral Blood Flow = assay: Effects on Femoral Blood Flow in the Dog; type: in vivo; details: anesthetized mongrel dog, intraarterial, 0.001 to 10 mcg
Protocol: The peripheral vasodilator or constrictor effects of these compounds were determined in mongrel dogs of either sex, weighing between 10 and 20 kg anesthestized intravenously with 35 mg/kg of sodium pentobarbital. An external iliac artery was dissected immediately above the femoral arch for a length of approximately 5 cm and a previously calibrated, non-connulating electromagnetic flowmeter sensor with a lumen between 2.5 and 3.5 mm was placed snugly around the vessel. Cannulas were placed in a branch of the artery arising distally to the location of the flowmeter sensor for intraarterial drug administrations, in the contralateral femoral artery for systemic blood pressure recordings and in the trachea for artificial respiration with room air. Femoral blood flow and systemic blood pressure were continously recorded with an electromagnetic flowmeter and pressure tranducer, respectively.
After an adequate control period, test compounds were injected intraarterially at one log-spaced doses ranging from 0.001 to 10 mcg., in a volume of 0.5 ml and at 5 to 10 minute intervals. Maximum changes in bloodflow, as well as any variations in blood pressure, were tabulated for each dose in absolute values (ml/min. and mmHg). The calculations were made taking as control values those existing immediately before administration of each dose. The direction of the observed change (plus for increase and minus for decrease) was also noted. The dose changing bloodflow by 100 ml/min (ED100 ml/min) was calculated graphically and was used for scoring activity as follows: […]

rat colon = assay: Cascade Assay, colon (smooth muscle stimulant effect); type: cell-based; details: superfused, 50% of maximum (PGF2α)
Protocol: (§1) The smooth muscle stimulant effects of test compounds were determined simultaneously in four different tissues that are known to be reactive to naturally occurring prostaglandins. Segments of rat stomach fundus, rat colon, chick rectum and rabbit aortic strip were obtained as described by: Vane, J. R., Brit. J. Pharmacol., 12: 344 (1957); Regoli, D. and Vane, J. R., Brit. J. Pharmacol., 23: 351 (1964); Mann, M. and West, G. B., Brit. J. Pharmacol., 5: 173 (1950); and Furchgott, R. F. and Bhadrakom, R., J. Pharmacol. Exper. Ther., 108: 129 (1953). One end of each preparation was tied to the bottom of a 10 ml tissue chamber and the other to a force displacement transducer (Grass FT-03) for continuous tension recording. The stomach, colon, and rectum segments were stretched to an initial tension of 1 g, while the aortic strip was subjected to 4 g. All preparations were left undisturbed for 1 hour prior to testing. The chambers were equipped with an external jacket through which water, maintained at 40° C, was circulated. Preparations were arranged one beneath the other in descending order (aorta, stomach, colon and rectum). Provision was made for bathing the four tissues successively so that they were superfused with the same fluid (Gaddum, H. J., Brit. J. Pharmacol., 6: 321 [1953]. The bathing fluid consisted of: Krebs bicarbonate solution aerated with a mixture of 95% O2 and 5% CO2 and warmed at 37° C; atropine sulphate (0.1 mcg/ml), phenoxybenzamine hydrochloride (0.1 mcg/ml), propranolol hydrochloride (3.0 mcg/ml), methysergide maleate (0.2 mcg/ml) and brompheniramine maleate (0.1 mcg/ml) were added to eliminate the possibility of smooth muscle responses being due to stimulation of cholinergic, adrenergic, serotonin or histamine receptors. The fluid was circulated by means of a roller pump and was allowed to drip over the preparations at a rate of 10 ml/minute.
(§2) Test compounds were diluted from stock solutions so as to administer quantities ranging from 0.001 100,000 ng in a volume of 0.5 ml. The compounds were applied by dripping on the uppermost tissue, at intervals of 10 to 20 minutes. Maximal increases in tension after each dose were measured and the results were used to plot dose-response curves. ED50 data (doses necessary to produce a response 50% of maximum) were then calculated graphically for each tissue.
(§3) Activity in each tissue was scored according to the following scale: […]

Rat Uterus = assay: Effects on the Rat Uterus in Vitro; type: cell-based; details: in vitro, 29° C, response 50% that of carbachol; for EC50: Rattus norvegicus, read-out: Test F Rat Uterus, Activity Value (ED50)
Protocol: The uterine stimulant effect of test compounds was determined in segments of uterus obtained from rats (140-160 g) pretreated subcutaneously with 1 mg/kg of diethyl-stilbesterol 18 hours before the experiment. The tissues were placed in 10 ml chambers filled with de-Jalon solution at 29° C, were aerated and bubbled with 95% O2 and 5% CO2, and were prepared for isometric recording with force displacement transducers. Preparations were stretched to an initial tension of 1 g and were left undisturbed for 30 minutes. Carbachol (1 mcg/ml) was then added to the bath and a response was recorded. After a 10 minute interval the carbachol procedure was repeated. Responses to increasing concentrations of a test compound (0.001 to 10 mcg/ml with one log intervals) were then recorded every 10 minutes. Preparations were washed four times after each response. All doses of compounds were administered in a 0.1 ml volume. Because it has been observed that the magnitude of the second response to carbachol (approximately 10% greater than the first) is close to the maximal response of the tissue, such value was taken as a measure of the sensitivity of a particular segment. Responses to each concentration of the test compound were expressed in terms of percentage of the second response to carbachol and the ED50 (dose producing a response 50% that of carbachol) was calculated graphically. Activity was scored according to the following scale: […]

rabbit aortic strip = assay: Cascade Assay, aorta (smooth muscle stimulant effect); type: cell-based; details: superfused, 50% of maximum (PGA2)
Protocol: as §1, §2, §3

Gastric Secretion = assay: Effects on Gastric Secretion in the Rat; type: in vivo; details: pylorus-ligated rat, subcutaneous, 2 x 1.5 mg/kg (total 3.0 mg/kg), 4 hours
Protocol: A procedure based on that described by Lipmann (J. Pharm. Pharmacol., 21:335 [1968]) was used to assess the influence of test compounds on gastric secretion. Rats of one sex weighing 150 to 200 g were randomly divided into groups of six animals each and fasted for 48 hours previously to the experiments, water being available adlibitum. The animals were anesthetized with ether, the abdomen was opened through a midline incision and the pylorus was ligated. Test compounds were diluted from stock solution so as to administer a dose of 1.5 mg/kg in a volume equivalent to 1 ml/kg. Subcutaneous injections were applied immediately after surgery and again 2 hours later, so that a total dose of 3.0 mg/kg was administered. Dilutions were made with phosphate buffer (pH 7.38) as recommended by Lee et al. (Prostaglandins 3:29 [1973]), in order to insure adequate stability of drugs at the subcutaneous depot. Each compound was tested in one group of rats; an additional control group received only the vehicle.
Four hours after pyloric ligation the animals were killed with ether, the cardias ligated and the stomachs removed. The volume of gastric secretion was measured and the contents centrifuged at 500 rpm for 10 minutes. Total acid in the supernatant was titrated against a 0.1 N sodium hydroxide solution and the amount expressed in mEq.
Volume and total acid values of the treated group were compared with those of the controls by the "T" test. Antisecretory activity was scored according to the following scale: […]

[1] = tested on: Blood Pressure and Heart Rate; assay: Effects on Blood Pressure and Heart Rate in the Anesthetized Cat; type: in vivo; details: intravenous, 0.01 to 10.0 mcg/kg, scored only on hypotension; for ED (50 mmHg): Felis catus, read-out: Test D Activity Value (ED50 mmHg, decrease in blood pressure);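 as to all read-outs here: Anesthetized cats given intravenous doses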
Protocol: The acute effects of test compounds on blood pressure and heart rate were determined in cats of either sex anesthetized with a mixture of pentobarbital sodium (35 mg/kg, i.v.) and barbital sodium (100 mg/kg, i.v.). Cannulas were placed in the trachea to allow adequate spontaneous ventilation, in a femoral artery for blood pressure recording with a strain gage transducer, and in a saphenous vein for drug administration. Heart rate was recorded by means of a cardiotachometer driven by the R wave of the electrocardiogram. After a period of 10 minutes of stable recordings of blood pressure and heart rate, the test compound was administered intravenously at doses increasing from 0.01 to 10.0 mcg/kg, spaced one log and injected at 10 minutes intervals. All doses were injected in a volume of 0.1 ml/kg. Modifications of blood pressure and heart rate induced by the test compound were expressed both in absolute units (mmHg and beats/minutes) and as percent of values recorded immediately before administration of each dose. Biphasic responses were tabulated in the order in which they occur. The direction of the observed changes was also noted (+ for increases and - for decreases).
Activity of compounds in this test was judged only on the basis of the degree of hypotension observed. Thus, the ED50 mmHg (dose decreasing blood pressure by 50 mmHg) was calculated graphically and the compound scored according to the following scale: […]

rat stomach fundus = assay: Cascade Assay, stomach (smooth muscle stimulant effect); type: cell-based; details: superfused, 50% of maximum (PGE1)
Protocol: as §1, §2, §3

chick rectum = assay: Cascade Assay, rectum (smooth muscle stimulant effect); type: cell-based; details: superfused, 50% of maximum (PGE1)
Protocol: as §1, §2, §3

| SMILES | Test C Activity Value (ED100 ml/min, increase in femoral blood flow) (Femoral Blood Flow) | Test E Cascade Assay, Colon, Activity Value (ED50) (rat colon) | EC50 (Rat Uterus) [µg/mL] | Test E Cascade Assay, Aorta, Activity Value (ED50) (rabbit aortic strip) | Test B Activity Value (% decrease in acidity, inhibition of gastric secretion) (Gastric Secretion) | ED (50 mmHg) [1] [mg/kg] | Test E Cascade Assay, Stomach, Activity Value (ED50) (rat stomach fundus) | Test E Cascade Assay, Rectum, Activity Value (ED50) (chick rectum) | Test F Rat Uterus, Activity Value (ED50) (Rat Uterus) | Test D Activity Value (ED50 mmHg, decrease in blood pressure) [1] |
| --- | --- | --- | --- | --- | --- | --- | --- | --- | --- | --- |
| O=C(O)CCCCCC[C@H]1C(=O)CC[C@@H]1/C=C/[C@H](O)C1CCC2(CCCCC2)CC1 (relative stereo) [TR-4020, dl 7-{5-oxo-2R-[3R-hydroxy-3-(spiro[5.5]undecan-3-yl)-1E-propenyl]cyclopent-1R-yl}heptanoic acid] | 0 (>10.0) | 0 (>10000) | > 10 | 0 (>10000) | 0 (<26) | > 0.01 | 2 (101 - 1000) | 0 (>10000) |  |  |
| O=C(O)CCCCCC[C@H]1C(=O)CC[C@@H]1/C=C/[C@@H](O)C1CCC2(CCCCC2)CC1 (relative stereo) [TR-4021, dl 7-{5-oxo-2R-[3S-hydroxy-3-(spiro[5.5]undecan-3-yl)-1E-propenyl]cyclopent-1R-yl} heptanoic acid] | 0 (>10.0) | 0 (>10000) | > 10 | 0 (>10000) | 0 (<26) | > 0.01 | 4 (<10) | 0 (>10000) |  |  |
| O=C(O)CCCCCC[C@H]1C(=O)CC[C@@H]1/C=C/[C@H](O)C1CC2(CCC2)C1 (relative stereo) [TR-4137, dl 7-{5-oxo-2R-[3R-hydroxy-3-(spiro[3.3]hept-2-yl)-1E-propenyl]cyclopent-1R-yl}heptanoic acid] | 3 (0.01 - 0.1) | 0 (>10000) | > 10 | 0 (>10000) | 3 (51-75) | 0.00011 to 0.001 | 1 (1001 - 10000) |  |  |  |
| O=C(O)CCC/C=C\C[C@H]1C(=O)CC[C@@H]1/C=C/[C@@H](O)C1CC2(CCC2)C1 (relative stereo) [TR-4146, dl 7-{5-oxo-2R-[3S-hydroxy-3-(spiro[3.3]hept-2-yl)-1E-propenyl]cyclopent-1R-yl}hept-5Z-enoic acid] | 0 (>10.0) | 2 (101 - 1000) | > 10 | 0 (>10000) | 0 (<26) | > 0.01 | 1 (1001 - 10000) |  |  |  |
| COC(=O)CCCCCC[C@H]1C(=O)C=C[C@H]1/C=C/[C@H](O)C1CC2(CCC2)C1 [TR-4127, Methyl 7-{5-oxo-2R-[3R-hydroxy-3-(spiro[3.3]hept-2-yl)-1E-propenyl]cyclopent-3-en-1R-yl}hepanoate] |  | 0 (>10000) |  | 0 (>10000) |  |  | 0 (>10000) | 0 (>10000) | 0 (>10) | 0 (>10.0) |
| COC(=O)CCCCCC[C@@H]1[C@@H](/C=C/[C@@H](O)C2CC3(CCC3)C2)[C@H](O)C[C@H]1O [TR-4138, Methyl 7-{3R, 5R-dihydroxy-2R-[3S-hydroxy-3-(spirol[3.3]hept-2-yl)-1E-propenyl]cyclopent-1R-yl}heptanoate] |  | 0 (>10000) | > 10 | 0 (>10000) |  | > 0.01 | 0 (>10000) | 0 (>10000) |  |  |

— patent US4098823A, “Monospiroalkyl derivatives of prostaglandins” (Miles Laboratories, Inc., priority 1977, dated 1978)
